ChEMBL document CHEMBL1201862, “PubChem BioAssay data set” (2004)
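All cell lines were grown in 96-well plates and treated with compound for 48 hours. The concentration for 50% growth inhibition is given as GI50.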 Activity calls are given as the source filed them. No stated cut-off is given here; in the data, active = GI50 up to about 1.1 µM and inactive = higher.

What was measured:
Assay in all cases: NCI anticancer screen, dose series, 48 h
[1] = test system: HL-60
[2] = test system: ACHN
[3] = test system: UACC-62
[4] = test system: HOP-62
[5] = test system: NCI-H522
[6] = test system: SN12C
[7] = test system: A549
[8] = test system: OVCAR-5
[9] = test system: LOX IMVI
[10] = test system: COLO 205
[11] = test system: M14
[12] = test system: 786-0
[13] = test system: MDA-N
[14] = test system: MCF7
[15] = test system: SK-OV-3
[16] = test system: RXF 393
[17] = test system: K562
[18] = test system: HCT-15
[19] = test system: IGROV-1
[20] = test system: KM12

SMILES | GI50 [1] | GI50 [2] | GI50 [3] | GI50 [4] | GI50 [5] | GI50 [6] | GI50 [7] | GI50 [8] | GI50 [9] | GI50 [10] | GI50 [11] | GI50 [12] | GI50 [13] | GI50 [14] | GI50 [15] | GI50 [16] | GI50 [17] | GI50 [18] [µM] | GI50 [19] | GI50 [20]
C=C1C(=O)O[C@@H]2C[C@@H](C)[C@@H]3C=CC(=O)[C@@]3(C)[C@@H](OC(=O)CC(=O)O[C@H]3[C@@H]4C(=C)C(=O)O[C@@H]4C[C@@H](C)[C@@H]4C=CC(=O)[C@]43C)[C@H]12 | < 0.01 µM (active) | 0.03 µM (active) | 0.0306 µM (active) | 0.44 µM (active) | < 0.01 µM (active) | 0.0348 µM (active) | 0.431 µM (active) | 0.178 µM (active) | < 0.0335 µM (active) | < 0.0148 µM (active) | 0.0235 µM (active) | 0.0199 µM (active) | 0.0755 µM (active) | 0.0356 µM (active) | 0.256 µM (active) | < 0.0112 µM (active) | 0.0154 µM (active) | 0.0309 | 0.173 µM (active) | 0.0478 µM (active)
O=C(NCCN1CCCC1)c1cn2c(ccc3sc4ccccc4c(=O)c32)n1 | 5.61 µM (inactive) | 5.13 µM (inactive) | 17.1 µM (inactive) | 11.7 µM (inactive) | 10.7 µM (inactive) | 10.9 µM (inactive) | 7.19 µM (inactive) | 11.9 µM (inactive) | 1.46 µM (inactive) | 11.7 µM (inactive) | 15.6 µM (inactive) | 1.41 µM (inactive) | 16.2 µM (inactive) | 2.77 µM (inactive) | 16.3 µM (inactive) | 10.8 µM (inactive) | 1.5 µM (inactive) | 10.9 | 11.7 µM (inactive) | 16.7 µM (inactive)
CN(C)CCCSc1nc2c(c(=N)n1-c1ccccc1)c(=S)n(-c1ccccc1)c(=S)n2-c1ccccc1 | 0.798 µM (active) | 1.82 µM (inactive) | 1.78 µM (inactive) | 1.8 µM (inactive) | 1.69 µM (inactive) | 1.74 µM (inactive) | 1.95 µM (inactive) | 11.3 µM (inactive) | 1.29 µM (inactive) | 1.9 µM (inactive) | 1.78 µM (inactive) | 1.27 µM (inactive) | 1.71 µM (inactive) | 0.383 µM (active) | 2.65 µM (inactive) | 1.57 µM (inactive) | 0.459 µM (active) | 1.61 | 1.83 µM (inactive) | 1.83 µM (inactive)
CC1(C)N=C(N)N=C(N)N1c1ccc(CCCCc2ccc(Cl)cc2Cl)cc1 | 0.461 µM (active) | 4.57 µM (inactive) | – | 1.08 µM (active) | 0.433 µM (active) | 0.502 µM (active) | 0.335 µM (active) | 4.31 µM (inactive) | 0.417 µM (active) | 0.927 µM (active) | 0.914 µM (active) | 0.5 µM (active) | 0.982 µM (active) | 0.453 µM (active) | 0.746 µM (active) | 0.891 µM (active) | 42.2 µM (inactive) | 5.04 | 0.451 µM (active) | 0.63 µM (active)
COc1cc(/C=C2\NC(=O)N(/C=C3\C(=O)Oc4ccccc4C3=O)C2=O)ccc1O | 20.7 µM (inactive) | > 100 µM (inactive) | 49 µM (inactive) | 61.2 µM (inactive) | 29.2 µM (inactive) | 54.3 µM (inactive) | > 100 µM (inactive) | > 100 µM (inactive) | 49.5 µM (inactive) | 78.2 µM (inactive) | 99.3 µM (inactive) | 88.7 µM (inactive) | > 100 µM (inactive) | > 100 µM (inactive) | 51.1 µM (inactive) | 25.1 µM (inactive) | > 100 µM (inactive) | 39.3 | 62.7 µM (inactive) | 54.1 µM (inactive)
COc1ccc(C[N+](C)(C)N)cc1OC | > 10 µM (inactive) | > 10 µM (inactive) | > 100 µM (inactive) | > 10 µM (inactive) | > 10 µM (inactive) | > 10 µM (inactive) | > 10 µM (inactive) | > 10 µM (inactive) | > 10 µM (inactive) | > 10 µM (inactive) | > 10 µM (inactive) | > 10 µM (inactive) | > 10 µM (inactive) | > 10 µM (inactive) | > 10 µM (inactive) | > 100 µM (inactive) | 4.03 µM (inactive) | > 10 | > 100 µM (inactive) | > 10 µM (inactive)
O=C(Nc1ccc(Cl)c(Cl)c1)N1N=C2c3ccccc3CCC2C1c1ccc(Cl)cc1 (configuration not stated) | > 100 µM (inactive) | > 100 µM (inactive) | > 100 µM (inactive) | > 100 µM (inactive) | > 100 µM (inactive) | > 100 µM (inactive) | > 100 µM (inactive) | > 100 µM (inactive) | > 100 µM (inactive) | > 100 µM (inactive) | > 100 µM (inactive) | > 100 µM (inactive) | > 100 µM (inactive) | > 100 µM (inactive) | > 100 µM (inactive) | > 100 µM (inactive) | > 100 µM (inactive) | > 100 | 3.01 µM (inactive) | > 100 µM (inactive)
CC1=NN(c2nc(N)nc(CCl)n2)C(C)(C)C1 | 4.69 µM (inactive) | 10.3 µM (inactive) | 14.8 µM (inactive) | 3.67 µM (inactive) | 1.39 µM (inactive) | 30.3 µM (inactive) | 42.6 µM (inactive) | 32 µM (inactive) | 1.78 µM (inactive) | 22.9 µM (inactive) | 30.7 µM (inactive) | 5.68 µM (inactive) | 31.5 µM (inactive) | 45 µM (inactive) | > 56 µM (inactive) | > 56.8 µM (inactive) | 27.2 µM (inactive) | 21 | 4.41 µM (inactive) | 19.3 µM (inactive)
COc1cc(C2SCC(=O)N2c2ccc(Cl)c(Cl)c2)cc(OC)c1OC (configuration not stated) | 19.5 µM (inactive) | – | 0.838 µM (active) | 24.2 µM (inactive) | 22.1 µM (inactive) | > 54.5 µM (inactive) | > 78.7 µM (inactive) | 7.5 µM (inactive) | 17.7 µM (inactive) | 34.3 µM (inactive) | 11.2 µM (inactive) | > 55.6 µM (inactive) | 13 µM (inactive) | 38.2 µM (inactive) | 99.3 µM (inactive) | 18.5 µM (inactive) | 1.28 µM (inactive) | 20.6 | > 82.6 µM (inactive) | 12.7 µM (inactive)
COC(=O)C[C@H](CCSC)NC(=O)C[C@H](CCSC)NC(=O)C[C@H](CCSC)NC(=O)OC(C)(C)C | 1.44 µM (inactive) | 36.9 µM (inactive) | 27.9 µM (inactive) | 39.4 µM (inactive) | 35.2 µM (inactive) | 32.8 µM (inactive) | 43.6 µM (inactive) | > 100 µM (inactive) | > 100 µM (inactive) | > 100 µM (inactive) | 57.5 µM (inactive) | 33.6 µM (inactive) | 48.3 µM (inactive) | 38.1 µM (inactive) | 20 µM (inactive) | 16.1 µM (inactive) | > 100 µM (inactive) | > 100 | 56.2 µM (inactive) | > 100 µM (inactive)
Nc1ncnc2c1ncn2CCCNO | > 100 µM (inactive) | > 100 µM (inactive) | > 100 µM (inactive) | > 100 µM (inactive) | > 100 µM (inactive) | > 100 µM (inactive) | > 100 µM (inactive) | > 100 µM (inactive) | > 100 µM (inactive) | > 100 µM (inactive) | > 100 µM (inactive) | > 100 µM (inactive) | > 100 µM (inactive) | > 100 µM (inactive) | > 100 µM (inactive) | > 100 µM (inactive) | > 100 µM (inactive) | > 100 | > 100 µM (inactive) | > 100 µM (inactive)
CN(C)CCNC(=O)Cn1ccc(=O)c2cc([N+](=O)[O-])ccc21 | > 100 µM (inactive) | > 100 µM (inactive) | > 100 µM (inactive) | > 100 µM (inactive) | > 100 µM (inactive) | > 100 µM (inactive) | > 100 µM (inactive) | > 100 µM (inactive) | > 100 µM (inactive) | > 100 µM (inactive) | > 100 µM (inactive) | > 100 µM (inactive) | > 100 µM (inactive) | > 100 µM (inactive) | > 100 µM (inactive) | > 100 µM (inactive) | > 100 µM (inactive) | > 100 | > 100 µM (inactive) | > 100 µM (inactive)
CC1CC(OP(=O)(OCc2ccccc2)OCc2ccccc2)[C@@H](OCc2ccccc2)C(OCc2ccccc2)C1OCc1ccccc1 (some centres not stated) | 28.5 µM (inactive) | 43.9 µM (inactive) | > 100 µM (inactive) | > 100 µM (inactive) | 81.8 µM (inactive) | > 100 µM (inactive) | 24.7 µM (inactive) | > 100 µM (inactive) | > 100 µM (inactive) | > 100 µM (inactive) | > 100 µM (inactive) | > 100 µM (inactive) | > 100 µM (inactive) | 40.2 µM (inactive) | > 100 µM (inactive) | 0.0555 µM (active) | 76.9 µM (inactive) | > 100 | 64.7 µM (inactive) | –
CCOC(=O)c1c(CN2CCCC2)n(-c2ccccc2)c2cc(Br)c(O)cc12 | 9.44 µM (inactive) | 17.8 µM (inactive) | 16.7 µM (inactive) | 13.3 µM (inactive) | 17.1 µM (inactive) | 16.4 µM (inactive) | 16 µM (inactive) | 19.1 µM (inactive) | 16 µM (inactive) | 10.5 µM (inactive) | 15.5 µM (inactive) | 16.7 µM (inactive) | 17.2 µM (inactive) | 21 µM (inactive) | 25.8 µM (inactive) | 12.4 µM (inactive) | 18.3 µM (inactive) | 20.8 | 16.8 µM (inactive) | 16.8 µM (inactive)
